BindingDB's records for doi:10.1021/acsmedchemlett.8b00255 (2018)

Target: T1, Interleukin-23 receptor (Homo sapiens, UniProt Q5VWK5)
T1 sequence (Q5VWK5 whole entry): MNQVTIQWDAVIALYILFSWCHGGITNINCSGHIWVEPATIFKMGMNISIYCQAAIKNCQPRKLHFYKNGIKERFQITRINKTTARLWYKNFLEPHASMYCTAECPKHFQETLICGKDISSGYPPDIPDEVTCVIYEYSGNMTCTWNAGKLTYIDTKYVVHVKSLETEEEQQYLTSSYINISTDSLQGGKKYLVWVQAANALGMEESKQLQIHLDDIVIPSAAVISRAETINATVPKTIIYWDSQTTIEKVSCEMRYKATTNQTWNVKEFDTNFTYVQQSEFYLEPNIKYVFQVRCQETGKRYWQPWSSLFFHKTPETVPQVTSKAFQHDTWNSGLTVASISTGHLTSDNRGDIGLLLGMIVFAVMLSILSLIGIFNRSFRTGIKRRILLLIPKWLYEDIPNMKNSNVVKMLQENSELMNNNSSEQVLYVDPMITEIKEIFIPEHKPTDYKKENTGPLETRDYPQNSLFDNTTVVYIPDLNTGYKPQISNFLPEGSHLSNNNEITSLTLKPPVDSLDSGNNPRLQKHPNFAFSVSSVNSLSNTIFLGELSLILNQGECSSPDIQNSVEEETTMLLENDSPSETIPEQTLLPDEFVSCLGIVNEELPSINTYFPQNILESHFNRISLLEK
Test: Binding affinity to recombinant human flag/His-tagged IL-23R (1 to 353 residues) expressed in HEK293F cells assessed as dissociation rate constant measured over 90 secs by surface plasmon resonance assay

SMILES: CC(=O)N[C@H]1CCSC[C@@H](C(=O)N[C@@H](Cc2ccc(OCCN)cc2)C(=O)N[C@@H](Cc2c[nH]c3ccccc23)C(=O)N[C@@](C)(CCCCN)C(=O)N[C@@H](CCC(=O)O)C(=O)N[C@@H](CC(N)=O)C(=O)NCC(N)=O)NC(=O)[C@H](CCC(N)=O)NC(=O)[C@H](Cc2c[nH]c3ccccc23)NC(=O)[C@H]([C@@H](C)O)NC(=O)[C@H](CCC(N)=O)NC1=O
- koff: 0.0274 s⁻¹
